Data published in patent publication US6709830B2, “Methods for modulating the activation of a lymphocyte expressed G protein coupled receptor involved in cell proliferation, autoimmunity and inflammation” (The Regents of the University of California, priority 1997, dated 2004).
“Also recorded” adds a separate entry of the source.

Columns and labels:
G2A = target: T1, G2A (Mus musculus, UniProt Q9Z282); experiment: ERK MAP kinase assay (phospho-ERK Western blot) in CHO G2A.GFP cells; format: cell-based; conditions: serum starved CHO G2A.GFP cells, LPC 0.01 μM to 10 μM, 10 minutes
T1 construct: expressed in transfected cells; host or cells: MCF 10A (human breast epithelial cells, no endogenous G2A), plasmid pEXV3 G2A.GFP
T1 sequence (Q9Z282 1-382): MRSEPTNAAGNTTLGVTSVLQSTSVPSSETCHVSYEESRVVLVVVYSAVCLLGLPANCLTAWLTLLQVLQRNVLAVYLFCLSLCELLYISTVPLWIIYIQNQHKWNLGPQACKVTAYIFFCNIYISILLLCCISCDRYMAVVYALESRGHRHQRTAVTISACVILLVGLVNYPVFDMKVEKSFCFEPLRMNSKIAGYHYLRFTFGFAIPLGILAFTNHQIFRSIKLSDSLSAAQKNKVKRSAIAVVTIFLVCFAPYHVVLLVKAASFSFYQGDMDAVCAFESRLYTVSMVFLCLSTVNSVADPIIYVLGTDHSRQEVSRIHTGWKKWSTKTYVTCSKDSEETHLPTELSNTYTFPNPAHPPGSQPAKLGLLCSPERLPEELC
Method: (§1) Further exploration of the cellular response to LPC was undertaken in Chinese hamster ovary (CHO) cells. Stable lines of G2A expressing CHO cells were derived by infection with retroviruses encoding G2A.GFP (MSCV G2A.GFP). We examined ERK MAP kinase activity in control CHO GFP and CHO G2A.GFP cells in response to varying doses of LPC (0.01 μM to 10 μM).
(§2) CHO GFP or CHO G2A.GFP cells were serum starved for 18 hours prior to treatment with LPC for 10 minutes at 37° C. Western blotting was performed to detect activated p44/42 ERK MAP kinase using a specific phospho-ERK antibody (Santa Cruz Biotechnology,).

G2A.GFP fusion receptor = target: T2, G2A.GFP fusion receptor (Mus musculus, UniProt Q9Z282); experiment: Internalisation of G2A.GFP in HEK 293 G2A.GFP cells (confocal microscopy); format: cell-based; conditions: 2 hours, serum starved HEK 293 G2A.GFP cells
T2 construct: expressed in transfected cells; host or cells: HEK 293 cells infected with amphotropic MSCV G2A.GFP retrovirus
T2 sequence (Q9Z282 1-382): T1 sequence (Q9Z282 1-382)
Method: Agonist dependent receptor internalisation is a feature of GPCRs. G2A.GFP expressing HEK 293 cells (HEK 293 G2A.GFP) were generated by infection with amphotropic MSCV G2A.GFP retroviruses. In serum starved HEK 293 G2A.GFP cells, G2A.GFP is expressed predominantly on the plasma membrane. LPC (0.1 μM), as well as SPC (1 μM), induced internalisation of G2A.GFP in over 90% of cells (FIG. 6). Neither LPA, S-1-P or PAF induced G2A internalisation, which is consistent with LPC acting as a specific ligand for G2A. Treatment of HEK 293 G2A.GFP cells with SPC at low concentrations (0.1 μM) induced receptor internalisation in fewer cells (<50%).
HEK 293 G2A.GFP cells were seeded onto glass coverslips and subsequently serum starved for 16-24 hours prior to treatment with lipids. Two hours following lipid treatment, coverslips were washed with cold PBS and fixed with PBS/4% paraformaldehyde. Subcellular localisation of G2A.GFP was visualised under a confocal fluorescence microscope with a 60× oil immersion lens.

CHO GFP cells = experiment: ERK MAP kinase assay in control CHO GFP cells; format: cell-based, Chinese hamster; conditions: serum starved CHO GFP cells, LPC 0.01 μM to 10 μM, 10 minutes
Method: as §1, §2

MCF 10A cells = experiment: Calcium assay ([Ca2+]i, Fura-2) in parental or pEXV3 GFP transfected MCF 10A cells (control); format: cell-based, human; conditions: SPC or LPC up to 10 μM, LPA 1 μM, PAF 0.1 μM, ATP 20 μM
Method: MCF 10A cells were cultured in specialised glass-bottom dishes (Bioptech, Inc., Butler, Pa.) and loaded with Fura-2/AM ([…]; Molecular Probes) at 37° C. for 30 minutes in HEPES buffered saline (pH 7.4) containing 125 mM NaCl, 5 mM KCl, 1.2 mM MgSO4, 11 mM glucose, 1.8 mM CaCl2, 25 mM HEPES, 0.2% BSA. Loaded cells were washed, placed in HEPES buffeted saline without BSA, and incubated for 30 minutes at ambient temperature ensure dye hydrolysis by cytosolic esterases. Using a dual-wavelength spectrofluorometer (RFK-6002, Photon Technology Int'l, So. Brunswick, N.J.) coupled to an inverted fluorescence microscope (Olympus, IX-70, Lake Success, N.Y.), GFP-positive cells were identified using an excitation wavelength of 488 nm, a dichroic 505 nm long-pass and an emitter bandpass of 535 nm (Chroma Technology, Brattleboro, Vt.). [Ca^2+], measurements were performed on individual GFP-positive cells at excitation wavelengths of 340 nm and 380 nm, and an emission wavelength of 510 nm. Prior to data acquisition, background fluorescence (areas without cells) was measured and automatically subtracted from subsequent measurements. Agonists were diluted in HEPES buffered saline and solution changes accomplished by rapidly aspirating the buffer and replacing it with HEPES buffered saline containing the specific agonist. Fura-2 fluorescence signals (340 nm, 380 nm and the 340/380 ratio) originating from individual GFP-positive cells were continuously monitored at a sampling frequency of 25 Hz and collected using a software package from Photon Technology International (Felix™). Conversion of the 340 nm/380 nm ratio value into [Ca^2+]i was estimated by comparing the cellular fluorescence ratio with ratios acquired using Fura-2 (free acid) in buffers containing known Ca^2+ concentrations. [Ca^2+]i was then calculated as described by Grynkiewicz, et al (Grynkiewicz, G, et al, J Biol Chem, 260: pp3440-3450, 1985). All assays were performed in assay buffers containing 1 mM EGTA to exclude measurement of calcium influx.
To address whether G2A is a lysophospholipid receptor, we examined signalling events in cells ectopically expressing G2A as functional correlates of receptor activation. […] [Ca^2+]i measurements were performed in MCF 10A cells transfected with plasmids encoding green fluorescent protein (GFP) tagged G2A (pEXV3 G2A.GFP) (Kabarowski, J H S, et al, PNAS, 97: pp12109-12114, 2000) or GFP as described (Yan Xu and Derek S. Damron, Methods in Molecular Medicine, 39: Ovarian Cancer: Methods and Protocols, pp611-619, 2000). […] Similarly, dose-dependent responses of G2A.GFP transfected cells to SPC were observed, with an EC50 of approximately 0.4 μM (FIG. 4B). […] Responses to these agonists were not affected by G2A.GFP expression (FIG. 4A, middle and lower panels).

lysophosphatidylcholine [LPC]
ERK MAP kinase activity (G2A): dose-dependent increases; also recorded: activates ERK MAP kinase | induction of G2A internalisation (G2A.GFP fusion receptor): internalisation of G2A.GFP induced by LPC | ERK MAP kinase activity in control cells (CHO GFP cells): did not respond | [Ca2+]i response in control cells (MCF 10A cells): Neither parental or pEXV3 GFP transfected cells responded
